From paper PMC4263610, “Derivation of ligands for the complement C3a receptor from the C-terminus of C5a” (European Journal of Pharmacology, 2014)
Ends that are not written are not given here.

What was measured:
[1] = target: C3a receptor (Homo sapiens, UniProt Q16581); experiment: xCELLigence, antagonism of peptide-evoked response by C3a receptor antagonist SB 290157 in HMDM; type: cell-based; details: n=3–5
Experimental: (§1) HMDM were seeded overnight at 30,000 cells/well in 384-well E-Plates (Roche). Approximately 24 h later, HMDM media were exchanged for serum-free IMDM and equilibrated at 37 °C and 5% CO2 for 2 h prior to ligand addition. Ligands were prepared at a final DMSO concentration of 0.5% (or less) in serum-free IMDM. […] After agonist addition, measurements were taken continuously for ~1.5 h at 37 °C. The RTCA software was used for data analysis, with statistical analysis using GraphPad Prism 5.0c (GraphPAD Software Inc., San Diego, CA).

[2] = target: T1, human monocyte-derived macrophages (HMDM) (Homo sapiens, UniProt Q16581); experiment: xCELLigence cell impedance assay, agonist activity on HMDM; type: cell-based; details: for EC50: xCELLigence impedance, dose-response, serum-free IMDM, 37 °C, n=3–5; for response in initial single dose screen: single dose of 8 μM, n=4–6, hit = P<0.001; for xCELLigence response profile: C3a and C5a at 100 nM
T1 sequence (Q16581 1-482): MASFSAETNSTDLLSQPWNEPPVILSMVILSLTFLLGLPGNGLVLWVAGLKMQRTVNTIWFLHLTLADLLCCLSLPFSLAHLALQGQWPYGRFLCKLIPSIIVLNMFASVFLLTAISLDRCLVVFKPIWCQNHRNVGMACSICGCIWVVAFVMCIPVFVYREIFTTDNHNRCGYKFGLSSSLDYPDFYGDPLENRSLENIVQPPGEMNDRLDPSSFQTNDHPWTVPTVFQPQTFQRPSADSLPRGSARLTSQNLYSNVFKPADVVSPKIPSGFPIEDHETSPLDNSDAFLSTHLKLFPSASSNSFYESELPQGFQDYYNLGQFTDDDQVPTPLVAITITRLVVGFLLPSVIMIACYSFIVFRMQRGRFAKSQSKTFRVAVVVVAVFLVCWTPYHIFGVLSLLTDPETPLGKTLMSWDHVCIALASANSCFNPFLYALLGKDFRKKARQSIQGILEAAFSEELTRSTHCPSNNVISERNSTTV
Experimental: Human monocytes were isolated from blood donations to the Australian Red Cross Blood Service (Kelvin Grove, Queensland). The isolation of mononuclear cells was as described previously by [Halai and Cooper (2012)]. Briefly, the mononuclear cell layer was separated using density gradient centrifugation with Ficoll-Paque Plus (GE Healthcare). MACS magnetic beads (Miltenyi Biotec) were incubated with the cells for 15 min at 4 °C before passing through an LS column (Miltenyi Biotec) to select for the CD14+ cells. Selected monocytes were plated at a density of 1.5×10^7 in Iscove׳s Modified Dulbecco׳s Medium (IMDM) (Invitrogen Life Technologies) containing L-glutamine supplemented with 10% Fetal Bovine Serum (FBS), 50 IU/ml penicillin and 50 μg/ml streptomycin. Human macrophage colony-stimulating factor (M-CSF) (Peprotech) was added to media to allow cells to differentiate into human monocyte-derived macrophages (HMDM). Over the 7 day differentiation process, cells were incubated at 37 °C and 5% CO2.
as §1

[3] = target: T2, human C3a receptor (Homo sapiens, UniProt Q16581); experiment: RBL-2H3 degranulation assay (β-hexosaminidase), agonist, human C3a receptor; type: cell-based; details: RBL-2H3 transfected with human C3a receptor, 100 µM peptide (Fig. 3 legend: 50 μM), 15 min, β-hexosaminidase secretion, relative to FLPLAR
T2 construct: expressed in transfected cells; host or cells: RBL-2H3 (rat basophilic leukemia) cells
T2 sequence (Q16581 1-482): T1 sequence (Q16581 1-482)
Experimental: RBL-2H3 cells transfected with either human C5a1 or human C3a receptor ([Cain and Monk, 2002]) were routinely cultured in Dulbecco׳s Modified Eagle׳s Medium, 10% (v/v) fetal calf serum, and 400 mg/l G-418 at 37 °C in 5% CO2. Degranulation was measured by assaying for β-hexosaminidase activity in the cell supernatant, as described previously ([Monk et al., 1994]). In agonist assays, degranulation was calculated as a percentage of maximal activity in response to 200 nM recombinant human C3a, human C5a ([Cain and Monk, 2002]), or 10 nM agonist hexapeptide, FLPLAR ([Scully et al., 2010]). […]
RBL-2H3 cells transfected with either human C5a1 or human C3a receptor ([Cain and Monk, 2002]) were used to confirm hits detected in HMDM, using degranulation as a read-out ([Monk et al., 1994]). In cells transfected with C5a1, very weak agonist activity was detected in two groups of peptides, although even at 100 µM (the maximal dose achievable in the presence of the DMSO, which has adverse effects >1%), the activation obtained was 5–10% of the maximum activation achieved by a high dose of C5a (Fig. 3, top panel). […]
Fig. 3 Agonist activity of peptides at human C5a1 and C3a receptors expressed in rat basophilic leukemia cells (RBL-2H3). […] Degranulation was measured as the secretion of β-hexosaminidase. […]

[4] = tested on: C5a receptors; details: ref Taylor and Fairlie, 2005; cited from earlier work
Excerpt: C3a receptor/C5a1 promiscuity is not unusual and has been previously observed for whole C3a and a synthetic peptide agonist ([Ames et al., 1996]) and a chimeric C5a with the C3a C-terminal pentapeptide ([Bautsch et al., 1992]). In fact, early efforts to create potent and selective antagonists of C5a1 led to only partial agonists ([Taylor and Fairlie, 2005]).

Work on `N=C(N)NCCC[C@H](NC(=O)COCC(c1ccccc1)c1ccccc1)C(=O)O` [SB 290157] yielded an IC50 ([1]; agonist peptide 20 at about its EC50, antagonist pre-incubated 1 h) of 1.3 nM, an IC50 ([1]; agonist peptide 31 at about its EC50, antagonist pre-incubated 1 h) of 67 nM and an IC50 ([1]; agonist peptide 47 at about its EC50, antagonist pre-incubated 1 h) of 44 nM. The IC50 ([1]; agonist peptide 49 at about its EC50, antagonist pre-incubated 1 h) was 15 nM and the IC50 ([1]; agonist peptide 54 at about its EC50, antagonist pre-incubated 1 h) was 29 nM.

With Ac-RHYPLWR-OH [Peptide 31, Ac-RHYPLWR] the EC50 [2] was 1100 nM, the “response in initial single dose screen” value ([2]; xCELLigence) was “significant hits” and the “activation of C3a receptor (degranulation)” value [3] was “very strong activation”.

For Ac-TIYRLWR [Peptide 49, Ac-TIYRLWR], the EC50 [2] was 17000 nM.

With Ac-RYPLWR-OH [Peptide 54, Ac-RYPLWR] the EC50 [2] was 3000 nM, the “response in initial single dose screen” value ([2]; xCELLigence) was “significant hits” and the “activation of C3a receptor (degranulation)” value [3] was “very strong activation”.

With Ac-NNYNLWR-OH [Peptide 20, Ac-NNYNLWR] the EC50 [2] was 5800 nM and the “response in initial single dose screen” value ([2]; xCELLigence) was “significant hits”.

With Ac-RLYPLWR-OH [Peptide 47, Ac-RLYPLWR] the EC50 [2] was 1200 nM and the “response in initial single dose screen” value ([2]; xCELLigence) was “significant hits”.

For “C3a: complement fragment C3a, 77-residue protein, recombinant human [Peptide C3a]”, the xCELLigence response profile [2] was “single peak profile”, the “cell index (intensity of the signal)” value ([2]; xCELLigence) was 1.98 and the “time of signal peak after addition” value ([2]; xCELLigence) was ~ 1 min.

With Ac-TLLRLWR [Peptide 48] the “outcome of full dose range retest” value ([2]; xCELLigence, full dose range) was “a full dose response could not be obtained” and the “response in initial single dose screen” value ([2]; xCELLigence) was “significant hits”.

For “AcPhe[Lornithine-Pro-D-cyclohexylalanine-Trp-Arg] (sidechain bridge or staple) [PMX53, cyclic C5a1 antagonist]”, the receptor affinity [4] is given as “low nanomolar range”.

B1: C5a: complement fragment C5a, 74-residue protein, human (protein, UniProt P01031 678-751, looked up)
C5a anaphylatoxin: TLQKKIEEIAAKYKHSVVKKCCYDGACVNNDETCEQRAARISLGPRCIKAFTECCVVASQLRANISHKDMQLGR
modifications: C5a anaphylatoxin
notes: complement fragment C5a, 74-residue protein, human
For B1, the xCELLigence response profile [2] was “two-peak profile”, the “cell index (intensity of the signal)” value ([2]; xCELLigence) was 4.53 and the “time of signal peak after addition” value ([2]; xCELLigence) was ~ 4 min.
